# In the oligonucleotide strings, read from the 5' end, every base follows the letter of its sugar. An asterisk marks phosphorothioate; unmarked linkages are phosphodiester. Other units and linkages are bracketed, terminal groups are in braces. A string of capitals states the bases alone. e = 2'-O-(2-methoxyethyl) (MOE); [5mC] = 5-methylcytosine
# Experiments:
# Type in all cases: cell-based, human
# [1] = tested on: HSL; assay: HSL mRNA expression in adipocytes (real-time PCR)
# Method: (§1) Expression of the four hallmark genes, HSL, aP2, Glut4, and PPARγ, is also measured in adipocytes transfected with oligomeric compounds of the invention. Cells are lysed on day nine post-transfection and total RNA is harvested. The amount of total RNA in each sample is determined using a Ribogreen Assay (Invitrogen Life Technologies, Carlsbad, Calif.).
# (§2) For assaying adipocyte differentiation, expression of the four hallmark genes, HSL, aP2, Glut4, and PPARγ, as well as triglyceride (TG) accumulation and leptin secretion were measured in adipocytes transfected with the uniform 2′-MOE phosphorothioate (PS) oligomeric compounds previously described. Cells are lysed on day nine post-transfection, in a guanadinium-containing buffer and total RNA is harvested. Real-time PCR is performed (Applied Biosystems, Prism 7700) on the total RNA using the following primer/probe sets for the adipocyte differentiation hallmark genes: (aP2): forward 5′-GGTGGTGGAATGCGTCATG-3′ (SEQ ID NO: 746), reverse 5′-[…]-3′ (SEQ ID NO: 747), probe 5′-FAM-[…]-TAMRA-3′ (SEQ ID NO: 748); (Glut4): forward 5′-GGCCTCCGCAGGTTCTG-3′ (SEQ ID NO: 749), reverse 5′-[…]-3′ (SEQ ID NO: 750), probe 5′-FAM-[…]-TAMRA-3′ (SEQ ID NO: 751); (HSL): forward 5′-ACCTGCGCACAATGACACA-3′ (SEQ ID NO: 752), reverse 5′-[…]-3′ (SEQ ID NO: 753), probe 5′-FAM-[…]-TAMRA-3′ (SEQ ID NO: 754); (PPAR-γ): forward 5′-[…]-3′ (SEQ ID NO: 755), reverse 5′-[…]-3′ (SEQ ID NO: 756), probe 5′-FAM-[…]-TAMRA-3′ (SEQ ID NO: 757). The amount of total RNA in each sample is determined using a Ribogreen Assay (Molecular Probes, Eugene, Oreg.), and expression levels of the adipocyte differentiation hallmark genes were normalized to total RNA.
# [2] = tested on: aP2; assay: aP2 mRNA expression in adipocytes (real-time PCR); conditions: for AP2 mRNA: differentiating adipocytes, control = treatment with ISIS 342673; for aP2 mRNA: differentiating adipocytes transfected with oligomeric compound, Table 75
# Method: as §1, §2
# [3] = tested on: PPARγ; assay: PPARγ mRNA expression in adipocytes (real-time PCR)
# Method: as §1, §2
# [4] = tested on: Glut4; assay: Glut4 mRNA expression in adipocytes (real-time PCR)
# Method: as §1, §2
# [5] = tested on: adipocytes; assay: Triglyceride accumulation assay in adipocytes
# Method: The triglyceride accumulation assay measures the synthesis of triglyceride by adipocytes. Triglyceride accumulation is measured using the Infinity™ Triglyceride reagent kit (Sigma-Aldrich, St. Louis, Mo.). On day nine post-transfection, cells are washed and lysed at room temperature, and the triglyceride assay reagent is added. Triglyceride accumulation is measured based on the amount of glycerol liberated from triglycerides by the enzyme lipoprotein lipase. Liberated glycerol is phosphorylated by glycerol kinase, and hydrogen peroxide is generated during the oxidation of glycerol-1-phosphate to dihydroxyacetone phosphate by glycerol phosphate oxidase. Horseradish peroxidase (HRP) uses H2O2 to oxidize 4-aminoantipyrine and 3,5 dichloro-2-hydroxybenzene sulfonate to produce a red-colored dye. Dye absorbance, which is proportional to the concentration of glycerol, is measured at 515 nm using an UV spectrophotometer. Glycerol concentration is calculated from a standard curve for each assay, and data are normalized to total cellular protein as determined by a Bradford assay (Bio-Rad Laboratories, Hercules, Calif.).
# An increase in triglyceride content is another well-established marker for adipocyte differentiation. The triglyceride accumulation assay measures the synthesis of triglyceride by adipocytes. Triglyceride accumulation was measured using the Infinity™ Triglyceride reagent kit (Sigma-Aldrich, St. Louis, Mo.). Human white preadipocytes (Zen-Bio Inc., Research Triangle Park, N.C.) were grown in preadipocyte media (ZenBio Inc.). One day before transfection, 96-well plates were seeded with 3000 cells/well. Cells were transfected according to standard published procedures with 250 nM oligomeric compound in LIPOFECTIN™ (Invitrogen Corporation, Carlsbad, Calif.) (Monia et al., J. Biol. Chem. 1993 268(19):14514-22). Oligomeric compounds were tested in triplicate on each 96-well plate, and the effects of TNF-α, a positive drug control that inhibits adipocyte differentiation, were also measured in triplicate. Negative and transfectant-only controls may be measured up to six times per plate. After the cells have reached confluence (approximately three days), they were exposed to differentiation media (Zen-Bio, Inc.) containing a PPAR-γ agonist, IBMX, dexamethasone, and insulin for three days. Cells were then fed adipocyte media (Zen-Bio, Inc.), which was replaced at 2 to 3 day intervals. […] Triglyceride accumulation was measured based on the amount of glycerol liberated from triglycerides by the enzyme lipoprotein lipase. Liberated glycerol is phosphorylated by glycerol kinase, and hydrogen peroxide is generated during the oxidation of glycerol-1-phosphate to dihydroxyacetone phosphate by glycerol phosphate oxidase. Horseradish peroxidase (HRP) uses H2O2 to oxidize 4-aminoantipyrine and 3,5 dichloro-2-hydroxybenzene sulfonate to produce a red-colored dye. Dye absorbance, which is proportional to the concentration of glycerol, was measured at 515 nm using an UV spectrophotometer. Glycerol concentration was calculated from a standard curve for each assay, and data were normalized to total cellular protein as determined by a Bradford assay (Bio-Rad Laboratories, Hercules, Calif.). Results are expressed as a percent±standard deviation relative to transfectant-only control.
# [6] = Table 17, differentiating adipocytes, control = treatment with ISIS 342673
# [7] = Table 18, differentiating adipocytes, control = treatment with ISIS 342673
# [8] = differentiating adipocytes transfected with oligomeric compound, Table 75
Substance,"HSL mRNA [1, 6]","HSL mRNA [1, 7]",AP2 mRNA ([2]; Table 17),AP2 mRNA ([2]; Table 18),"PPAR gamma mRNA [3, 6]","PPAR gamma mRNA [3, 7]","GLUT4 mRNA [4, 6]","GLUT4 mRNA [4, 7]","TG (triglyceride accumulation) [5, 6]","TG (triglyceride accumulation) [5, 7]","HSL mRNA [1, 8]",aP2 mRNA [2],"PPAR gamma mRNA [3, 8]","GLUT4 mRNA [4, 8]","TG (triglyceride accumulation) [5, 8]"
TNF-alpha,0.7 percentage of control,3.1 percentage of control,5.5 percentage of control,9.6 percentage of control,18.8 percentage of control,27.9 percentage of control,0.5 percentage of control,1.9 percentage of control,10.0 percentage of control,14.5 percentage of control,,,,,
"344276 (antisense CAGGCAUAGGAUGACAAAGGGAA; all 2'-MOE, all phosphorothioate, methylation of C and T or U not given here) [compound 344276]",,,,,,,,,,,68 percentage of untreated control (UTC),72 percentage of untreated control (UTC),72 percentage of untreated control (UTC),49 percentage of untreated control (UTC),66 percentage of untreated control (UTC)
"346685 (GGCGGAACUUAGCCACUGUGAA; all 2'-MOE, all phosphorothioate, methylation of C and T or U not given here) [compound 346685]",,,,,,,,,,,172 percentage of untreated control (UTC),181 percentage of untreated control (UTC),138 percentage of untreated control (UTC),233 percentage of untreated control (UTC),164 percentage of untreated control (UTC)
328122 (antisense e[5mC]*eA*eA*eA*eA*e[5mC]*eA*eT*eA*eA*eA*eA*eA*eT*e[5mC]*e[5mC]*eT*eT*eG*e[5mC]*eA) [compound 328122],72.7 percentage of control,,79.3 percentage of control,,77.8 percentage of control,,85.9 percentage of control,,78.9 percentage of control,,89 percentage of untreated control (UTC),99 percentage of untreated control (UTC),103 percentage of untreated control (UTC),91 percentage of untreated control (UTC),97 percentage of untreated control (UTC)
328130 (antisense eA*e[5mC]*e[5mC]*eT*e[5mC]*eA*eG*eG*eT*eG*eG*eT*eT*eG*eA*eA*eG*eG*eA*eG*eA) [compound 328130],76.5 percentage of control,,86.6 percentage of control,,99.4 percentage of control,,83.8 percentage of control,,122.4 percentage of control,,64 percentage of untreated control (UTC),72 percentage of untreated control (UTC),77 percentage of untreated control (UTC),55 percentage of untreated control (UTC),91 percentage of untreated control (UTC)
"340354 (antisense UCAGACCGAGACAAGUGCAAUG; all 2'-MOE, all phosphorothioate, methylation of C and T or U not given here) [compound 340354]",,,,,,,,,,,56 percentage of untreated control (UTC),72 percentage of untreated control (UTC),74 percentage of untreated control (UTC),61 percentage of untreated control (UTC),64 percentage of untreated control (UTC)
"346915 (ACAUCGUUACCAGACAGUGUUA; all 2'-MOE, all phosphorothioate, methylation of C and T or U not given here) [compound 346915]",,,,,,,,,,,67 percentage of untreated control (UTC),83 percentage of untreated control (UTC),90 percentage of untreated control (UTC),75 percentage of untreated control (UTC),73 percentage of untreated control (UTC)
"346693 (CCCUCUGGUCAACCAGUCACA; all 2'-MOE, all phosphorothioate, methylation of C and T or U not given here) [compound 346693]",,,,,,,,,,,66 percentage of untreated control (UTC),77 percentage of untreated control (UTC),81 percentage of untreated control (UTC),65 percentage of untreated control (UTC),69 percentage of untreated control (UTC)
327969 (antisense eT*eG*eT*eG*eA*eG*eT*eT*e[5mC]*eT*eA*e[5mC]*e[5mC]*eA*eT*eT*eG*e[5mC]*e[5mC]*eA*eA*eA) [compound 327969],,66.4 percentage of control,,59.8 percentage of control,,69.2 percentage of control,,60.6 percentage of control,,46.0 percentage of control,45 percentage of untreated control (UTC),44 percentage of untreated control (UTC),67 percentage of untreated control (UTC),36 percentage of untreated control (UTC),34 percentage of untreated control (UTC)
"346913 (AGAAAGGCAGCAGGUCGUAUAG; all 2'-MOE, all phosphorothioate, methylation of C and T or U not given here) [compound 346913]",,,,,,,,,,,58 percentage of untreated control (UTC),66 percentage of untreated control (UTC),59 percentage of untreated control (UTC),40 percentage of untreated control (UTC),63 percentage of untreated control (UTC)
"348124 (CACAAAUUCGGUUCUACAGGGUA; anti-miR; all 2'-MOE, all phosphorothioate, methylation of C and T or U not given here) [compound 348124]",,,,,,,,,,,43 percentage of untreated control (UTC),59 percentage of untreated control (UTC),63 percentage of untreated control (UTC),41 percentage of untreated control (UTC),53 percentage of untreated control (UTC)
